In ChEMBL document CHEMBL3784972, “Optimization of N'-(arylsulfonyl)pyrazoline-1-carboxamidines by exploiting a novel interaction site in the 5-HT6 antagonistic binding pocket” (Bioorg Med Chem Lett, 2016):

Experiments:
[1] = target: T1, 5-hydroxytryptamine receptor 6 (Homo sapiens, UniProt P50406); assay: Displacement of [3H]-N-Methyl-Lysergic acid diethylamide from human 5-HT6 receptor expressed in CHO cells after 30 mins by liquid scintillation counting analysis; type: cell-based
[2] = target: T1, 5-hydroxytryptamine receptor 6; assay: Antagonist activity at human recombinant 5-HT6 receptor expressed in CHO cells assessed as inhibition of agonist induced intracellular calcium levels by aequorin assay; type: functional, cell-based; settings: read-out: pA2 (converted)
[3] = system: LLC-PK1; settings: pig, llc-pk1, 3 h; at 1 µg/mL
Description: Permeability across pig LLC-PK1 cells expressing MDR assessed as membrane passage at 1 ug/ml after 3 hrs by LC/MS analysis

[4] = system: MDR; assay: in vitro; settings: pig, LLC-PK1
Description: Permeability across pig LLC-PK1 cells expressing MDR assessed as ratio of bottom to top transport over top to bottom transport at 1 ug/ml after 3 hrs by LC/MS analysis

[5] = in vitro; settings: Sprague Dawley, rat, hepatocytes
[6] = in vitro; settings: human, hepatocytes

T1 sequence (P50406 whole entry): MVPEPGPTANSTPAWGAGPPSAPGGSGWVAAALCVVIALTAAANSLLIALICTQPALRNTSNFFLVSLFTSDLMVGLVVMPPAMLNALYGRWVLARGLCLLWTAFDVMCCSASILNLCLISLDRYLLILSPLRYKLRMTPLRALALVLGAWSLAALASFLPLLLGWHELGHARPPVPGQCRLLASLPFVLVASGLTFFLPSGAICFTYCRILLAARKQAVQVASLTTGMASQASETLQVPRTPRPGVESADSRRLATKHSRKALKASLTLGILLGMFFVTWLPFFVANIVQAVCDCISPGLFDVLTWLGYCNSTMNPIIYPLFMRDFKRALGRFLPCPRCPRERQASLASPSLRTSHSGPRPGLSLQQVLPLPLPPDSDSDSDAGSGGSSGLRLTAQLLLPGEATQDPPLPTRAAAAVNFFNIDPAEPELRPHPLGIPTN

| Compound | Ki [1] | Kb [2] | permeability [3] | efflux ratio at 3 h, 1 ug/ml [4] | hepatocyte CLint [5] | hepatocyte CLint [6] |
| --- | --- | --- | --- | --- | --- | --- |
| CCN/C(=N\S(=O)(=O)c1ccc(N)cc1)N1CC2(C=N1)CCCCC2 | 7.1 nM | 5.01 nM | 36.5% | 3.3 | 53 µL/min/1e6 cells | 17 µL/min/1e6 cells |
| CCN/C(=N\S(=O)(=O)c1ccc(NC(C)=O)c(Cl)c1)N1CC(CC)C=N1 (stereo not drawn) | 8.7 nM | 10 nM | 34.4% | 2 | – | – |
| CCN/C(=N\S(=O)(=O)c1ccc(O)cc1)N1CC2(C=N1)CCCC2 | 5.8 nM | 3.16 nM | 32% | 5.9 | 42 µL/min/1e6 cells | 21 µL/min/1e6 cells |
| CCN/C(=N\S(=O)(=O)c1ccc2c(c1)CCN2)N1CC2(C=N1)CCCC2 | 25 nM | 5.01 nM | 36.5% | 2.6 | – | – |
| CCN/C(=N\S(=O)(=O)c1ccc2c(c1)NCC2)N1CC(CC)C=N1 (stereo not drawn) | 399 nM | > 1000 nM | 36.5% | 1.8 | – | – |
| CCN/C(=N\S(=O)(=O)c1cccc(N)c1)N1CC2(C=N1)CCCC2 | 97.2 nM | 100 nM | 35.7% | 3.2 | – | – |
| CCN/C(=N\S(=O)(=O)c1ccccc1)N1CC(CC)C=N1 (stereo not drawn) | – | – | 38.2% | 1.1 | 92 µL/min/1e6 cells | 15 µL/min/1e6 cells |
| CCN/C(=N\S(=O)(=O)c1ccc2[nH]ccc2c1)N1CC2(C=N1)CCNCC2 | 11.6 nM | – | – | – | – | 1 µL/min/1e6 cells |
| CCN/C(=N\S(=O)(=O)c1cccc(OC)c1)N1CC2(C=N1)CCCC2 | 97.1 nM | 126 nM | 35.2% | 3.2 | – | – |
| CCN/C(=N\S(=O)(=O)c1cccc(Cl)c1)N1N=CCC1c1ccc(N)cc1 (stereo not drawn) | > 1000 nM | 1580 nM | 36.2% | 2.7 | – | – |
| CCN/C(=N\S(=O)(=O)c1ccc(O)c(Cl)c1)N1CC2(C=N1)CCCC2 | 14.6 nM | 10 nM | 20.5% | 2.4 | 66 µL/min/1e6 cells | 34 µL/min/1e6 cells |
| CCN/C(=N\S(=O)(=O)c1ccc2[nH]ncc2c1)N1CC2(C=N1)CCCC2 | 28.6 nM | 12.6 nM | – | – | 99 µL/min/1e6 cells | 19 µL/min/1e6 cells |
| CCN/C(=N\S(=O)(=O)c1ccc(N)c(Cl)c1)N1CC2(C=N1)CCCC2 | 1.8 nM | – | 38.1% | – | – | 27 µL/min/1e6 cells |
| CCN/C(=N\S(=O)(=O)c1ccc(OC)cc1)N1CC2(C=N1)CCCC2 | 210 nM | > 1000 nM | 40.4% | 1.2 | – | – |
| CCN/C(=N\S(=O)(=O)c1ccc(N)cc1)N1CC2(C=N1)CCNCC2 | 14.2 nM | – | 0.3% | – | 5 µL/min/1e6 cells | 1 µL/min/1e6 cells |
